Test results from US20240116985A1, “STAPLED PEPTIDES AND METHODS THEREOF” (priority 2020, published 2024).

Target: T1, full-length beta-Catenin (Uniprot ID P35222) (Homo sapiens, UniProt P35222)
T1 construct: 10 nM full-length beta-Catenin (Uniprot ID P35222)
T1 sequence (P35222 1-781): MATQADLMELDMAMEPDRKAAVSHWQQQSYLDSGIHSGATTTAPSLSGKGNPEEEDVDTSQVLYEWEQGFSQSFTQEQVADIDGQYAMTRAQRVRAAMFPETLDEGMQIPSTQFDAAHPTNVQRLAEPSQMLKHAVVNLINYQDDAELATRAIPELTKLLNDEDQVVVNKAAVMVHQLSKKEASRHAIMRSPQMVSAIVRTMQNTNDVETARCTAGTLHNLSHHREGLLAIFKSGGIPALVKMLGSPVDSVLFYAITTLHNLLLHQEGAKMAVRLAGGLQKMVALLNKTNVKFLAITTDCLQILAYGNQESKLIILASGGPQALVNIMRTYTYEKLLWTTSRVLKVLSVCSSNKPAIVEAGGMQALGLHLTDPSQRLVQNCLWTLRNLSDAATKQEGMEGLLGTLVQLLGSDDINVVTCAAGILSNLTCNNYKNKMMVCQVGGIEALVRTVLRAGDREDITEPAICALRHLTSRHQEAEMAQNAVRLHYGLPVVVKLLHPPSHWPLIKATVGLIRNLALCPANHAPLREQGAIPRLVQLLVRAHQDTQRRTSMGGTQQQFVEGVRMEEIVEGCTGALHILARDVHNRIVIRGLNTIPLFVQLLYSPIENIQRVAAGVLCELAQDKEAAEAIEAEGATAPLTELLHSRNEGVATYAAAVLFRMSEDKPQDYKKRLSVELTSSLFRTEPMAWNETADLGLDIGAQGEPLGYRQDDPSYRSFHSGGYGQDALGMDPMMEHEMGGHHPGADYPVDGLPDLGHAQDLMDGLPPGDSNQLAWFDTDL
Assay: Fluorescence polarization IC50 (beta-catenin / 5FAM-TCF4 10-53 competition)
Assay type: binding
Conditions: fluorescence polarization; read-out: beta-Catenin FP IC50

Row | IC50 [nM] | SMILES
1 | 24 | CCNC(=O)CC[C@H](NC(=O)[C@H](Cc1csc2ccccc12)NC(=O)[C@H](Cc1ccccc1C(F)(F)F)NC(=O)[C@]12CCN(C1)C(=O)OCCCC=CCCCC1(CCCC=CC[C@]3(CCCN3C(C)=O)C(=O)N[C@@H](CC(=O)O)C(=O)N[C@@H](CC(C)(C)C)C(=O)N1)C(=O)N[C@@H](CC(=O)O)C(=O)N[C@@H](Cc1cccc(C(=O)O)c1)C(=O)N[C@@H](C)C(=O)N[C@@H](C)C(=O)N[C@@H](Cc1ccccc1)C(=O)N[C@@H](CC(C)C)C(=O)N2)C(=O)N[C@@H](C)C(N)=O (stereo partly drawn) [I-2470, Ac-PL3-Asp-Npg-B5-Asp-3COOHF-Ala-Ala-Phe-Leu-PyrS2-2F3MeF-BztA-NHEt]GlnR-Ala-NH2]
2 | 7 | CCNC(=O)CC[C@H](NC(=O)[C@H](Cc1csc2ccccc12)NC(=O)[C@H](Cc1ccsc1)NC(=O)[C@]12CCN(C1)C(=O)OCCCC=CCCCC1(CCCC=CC[C@]3(CCCN3C(C)=O)C(=O)N[C@@H](CC(=O)O)C(=O)N[C@@H](CC(C)(C)C)C(=O)N1)C(=O)N[C@@H](CC(=O)O)C(=O)N[C@@H](Cc1cccc(C(=O)O)c1)C(=O)NC(C)(C)C(=O)N[C@@H](C)C(=O)N[C@@H](Cc1ccccc1)C(=O)N[C@@H](CC)C(=O)N2)C(=O)N[C@@H](C)C(N)=O (stereo partly drawn) [I-2473, Ac-PL3-Asp-Npg-B5-Asp-3COOHF-Aib-Ala-Phe-Abu-PyrS2-3Thi-BztA-[NHEt]GlnR-Ala-NH2]
3 | 627 | CC(=O)N1CCC[C@]12CC=CCCCC1(CCCC=CCCCOC(=O)N3CC[C@@](C(=O)N[C@@H](Cc4ccsc4)C(=O)N[C@@H](Cc4csc5ccccc45)C(=O)N[C@@H](CC(C)C)C(N)=O)(C3)NC(=O)[C@H](CC(N)=O)NC(=O)[C@H](Cc3ccccc3)NC(=O)[C@H](C)NC(=O)C(C)(C)NC(=O)[C@H]([C@@H](C)O)NC(=O)[C@H](CC(N)=O)NC1=O)NC(=O)[C@H](CC(C)(C)C)NC(=O)[C@H](CC(=O)O)NC2=O (stereo partly drawn) [I-2479, Ac-PL3-Asp-Npg-B5-Asn-Thr-Aib-Ala-Phe-Asn-PyrS2-3Thi-BztA-Leu-NH2]
4 | 475 | CC(=O)N1CCC[C@]12CC=CCCCC1(CCCC=CCCCOC(=O)N3CC[C@@](C(=O)N[C@@H](Cc4ccsc4)C(=O)N[C@@H](Cc4csc5ccccc45)C(=O)N[C@H](C(N)=O)C(C)C)(C3)NC(=O)[C@H](CC(N)=O)NC(=O)[C@H](Cc3ccccc3)NC(=O)[C@H](C)NC(=O)C(C)(C)NC(=O)[C@H]([C@@H](C)O)NC(=O)[C@H](CC(N)=O)NC1=O)NC(=O)[C@H](CC(C)(C)C)NC(=O)[C@H](CC(=O)O)NC2=O (stereo partly drawn) [I-2480, Ac-PL3-Asp-Npg-B5-Asn-Thr-Aib-Ala-Phe-Asn-PyrS2-3Thi-BztA-Val-NH2]
5 | 754 | CC(=O)N1CCC[C@]12CC=CCCCC1(CCCC=CCCCOC(=O)N3CC[C@@](C(=O)N[C@@H](Cc4ccsc4)C(=O)N[C@@H](Cc4csc5ccccc45)C(=O)N[C@@H](Cc4c[nH]c5ccccc45)C(N)=O)(C3)NC(=O)[C@H](CC(N)=O)NC(=O)[C@H](Cc3ccccc3)NC(=O)[C@H](C)NC(=O)C(C)(C)NC(=O)[C@H]([C@@H](C)O)NC(=O)[C@H](CC(N)=O)NC1=O)NC(=O)[C@H](CC(C)(C)C)NC(=O)[C@H](CC(=O)O)NC2=O (stereo partly drawn) [I-2481, Ac-PL3-Asp-Npg-B5-Asn-Thr-Aib-Ala-Phe-Asn-PyrS2-3Thi-BztA-Trp-NH2]
6 | 5 | CC(=O)N1CCC[C@]12CC=CCCCC1(CCCC=CCCCOC(=O)N3CC[C@@](C(=O)N[C@@H](Cc4ccsc4)C(=O)N[C@@H](Cc4csc5ccccc45)C(=O)N[C@@H](CCC(N)=O)C(N)=O)(C3)NC(=O)[C@H](CC(C)C)NC(=O)[C@H](Cc3ccccc3)NC(=O)[C@H](C)NC(=O)[C@H](C)NC(=O)[C@H](Cn3cc(CC4(C(=O)O)CC4)nn3)NC(=O)[C@H](CC(=O)O)NC1=O)NC(=O)[C@H](CC(C)(C)C)NC(=O)[C@H](CC(=O)O)NC2=O (stereo partly drawn) [I-2482, Ac-PL3-Asp-Npg-B5-Asp-[CH2CCpCO2H]TriAzDap-Ala-Ala-Phe-Leu-PyrS2-3Thi-BztA-Gln-NH2]
7 | 5 | CC(=O)N1CCC[C@]12CC=CCCCC1(CCCC=CCCCOC(=O)N3CC[C@@](C(=O)N[C@@H](Cc4ccsc4)C(=O)N[C@@H](Cc4csc5ccccc45)C(=O)N[C@@H](CCC(N)=O)C(N)=O)(C3)NC(=O)[C@H](CC(C)C)NC(=O)[C@H](Cc3ccccc3)NC(=O)[C@H](C)NC(=O)[C@H](C)NC(=O)[C@H](Cn3cc(CC4(C(=O)O)CCCCC4)nn3)NC(=O)[C@H](CC(=O)O)NC1=O)NC(=O)[C@H](CC(C)(C)C)NC(=O)[C@H](CC(=O)O)NC2=O (stereo partly drawn) [I-2483, Ac-PL3-Asp-Npg-B5-Asp-[CH2CChCO2H]TriAzDap-Ala-Ala-Phe-Leu-PyrS2-3Thi-BztA-Gln-NH2]
8 | 449 | CC(=O)N1CCC[C@]12CC=CCCCC1(CCCC=CCCCOC(=O)N3CC[C@@](C(=O)N[C@@H](Cc4ccccc4)C(=O)N[C@@H](Cc4csc5ccccc45)C(=O)N[C@@H](CC(=O)N4CCOCC4)C(N)=O)(C3)NC(=O)[C@H](CC(C)C)NC(=O)[C@H](Cc3ccccc3)NC(=O)[C@H](C)NC(=O)[C@H](CCO)NC(=O)[C@H](CCC(N)=O)NC(=O)[C@H](CC(=O)O)NC1=O)NC(=O)[C@H](CC1CCCCC1)NC(=O)[C@H](CC(N)=O)NC2=O (stereo partly drawn) [I-2498, Ac-PL3-Asn-Cha-B5-Asp-Gln-Hse-Ala-Phe-Leu-PyrS2-Phe-BztA-MorphAsn-NH2]
9 | 1310 | CC(=O)N1CCC[C@]12CC=CCCCC1(CCCC=CCCCOC(=O)N3CC[C@@](C(=O)N[C@@H](Cc4ccccc4)C(=O)N[C@@H](Cc4csc5ccccc45)C(=O)N[C@@H](CC(=O)N4CCOCC4)C(N)=O)(C3)NC(=O)[C@H](CC(C)C)NC(=O)[C@H](Cc3ccccc3)NC(=O)[C@H](C)NC(=O)[C@H]([C@@H](C)O)NC(=O)[C@H](CCC(N)=O)NC(=O)[C@H](CC(=O)O)NC1=O)NC(=O)[C@H](CC1CCCCC1)NC(=O)[C@H](CC(N)=O)NC2=O (stereo partly drawn) [I-2503, Ac-PL3-Asn-Cha-B5-Asp-Gln-Thr-Ala-Phe-Leu-PyrS2-Phe-BztA-MorphAsn-NH2]
10 | 687 | CC(=O)N1CCC[C@]12CC=CCCCCC1(CCCCC=CCOC(=O)N3CC[C@@](C(=O)N[C@@H](Cc4ccccc4C(F)(F)F)C(=O)N[C@@H](Cc4csc5ccccc45)C(=O)N[C@@H](CCC(N)=O)C(N)=O)(C3)NC(=O)[C@H](CC(C)C)NC(=O)[C@H](Cc3ccccc3)NC(=O)[C@H](C)NC(=O)[C@H](C)NC(=O)[C@H](Cc3cccc(C(=O)O)c3)NC(=O)[C@H](CC(=O)O)NC1=O)NC(=O)[C@H](CC(C)(C)C)NC(=O)[C@H](CC(=O)O)NC2=O (stereo partly drawn) [I-2505, Ac-PL3-Asp-Npg-B6-Asp-3COOHF-Ala-Ala-Phe-Leu-PyrS-2F3MeF-BztA-Gln-NH2]
11 | 332 | CC(=O)N1CCC[C@]12CC=CCCCCC1(CCCCC=CCOC(=O)N3CC[C@@](C(=O)N[C@@H](Cc4ccccc4C(F)(F)F)C(=O)N[C@@H](Cc4csc5ccccc45)C(=O)N[C@@H](C)C(N)=O)(C3)NC(=O)[C@H](CC(C)C)NC(=O)[C@H](Cc3ccccc3)NC(=O)[C@H](C)NC(=O)[C@H](CCC(N)=O)NC(=O)[C@H](Cc3cccc(C(=O)O)c3)NC(=O)[C@H](CC(=O)O)NC1=O)NC(=O)[C@H](CC(C)(C)C)NC(=O)[C@H](CC(=O)O)NC2=O (stereo partly drawn) [I-2506, Ac-PL3-Asp-Npg-B6-Asp-3COOHF-Gln-Ala-Phe-Leu-PyrS-2F3MeF-BztA-Ala-NH2]
12 | 168 | CC(=O)N1CCC[C@]12CC=CCCCCC1(CCCCC=CCOC(=O)N3CC[C@@](C(=O)N[C@@H](Cc4ccccc4C(F)(F)F)C(=O)N[C@@H](Cc4csc5ccccc45)C(=O)N[C@@H](C)C(N)=O)(C3)NC(=O)[C@H](CC(C)C)NC(=O)[C@H](Cc3ccccc3)NC(=O)[C@H](C)NC(=O)[C@H](CCC(N)=O)NC(=O)[C@H](Cc3cccc(C(=O)O)c3)NC(=O)[C@H](CC(=O)O)NC1=O)NC(=O)[C@H](CC(C)(C)C)NC(=O)[C@H](CC(=O)O)NC2=O (stereo partly drawn) [I-2507, Ac-PL3-Asp-Npg-B6-Asp-3COOHF-Gln-Ala-Phe-Leu-PyrS-2F3MeF-BztA-Ala-NH2]
13 | 17 | CC(=O)N1CCC[C@]12CC=CCCCCC1(CCCCC=CCCOC(=O)N3CC[C@@](C(=O)N[C@@H](Cc4ccccc4C(F)(F)F)C(=O)N[C@@H](Cc4csc5ccccc45)C(=O)N[C@@H](CCC(N)=O)C(N)=O)(C3)NC(=O)[C@H](CC(C)C)NC(=O)[C@H](Cc3ccccc3)NC(=O)[C@H](C)NC(=O)[C@H](C)NC(=O)[C@H](Cc3cccc(C(=O)O)c3)NC(=O)[C@H](CC(=O)O)NC1=O)NC(=O)[C@H](CC(C)(C)C)NC(=O)[C@H](CC(=O)O)NC2=O (stereo partly drawn) [I-2509, Ac-PL3-Asp-Npg-B6-Asp-3COOHF-Ala-Ala-Phe-Leu-PyrS1-2F3MeF-BztA-Gln-NH2]

Row | SMILES | IC50 [nM]
14 | CC[C@@H]1NC(=O)[C@H](Cc2ccccc2)NC(=O)[C@H](C)NC(=O)C(C)(C)NC(=O)[C@H](Cc2cccc(C(=O)O)c2)NC(=O)[C@H](CC(=O)O)NC(=O)C2(CCCC=CCCCOC(=O)N3CC[C@@](C(=O)N[C@@H](Cc4ccsc4)C(=O)N[C@@H](Cc4csc5ccccc45)C(=O)N[C@@H](CCC(=O)N4CCCCC4)C(=O)N[C@@H](C)C(N)=O)(C3)NC1=O)CCCC=CC[C@]1(CCCN1C(C)=O)C(=O)N[C@@H](CC(=O)O)C(=O)N[C@@H](CC(C)(C)C)C(=O)N2 (stereo partly drawn) [I-2476, Ac-PL3-Asp-Npg-B5-Asp-3COOHF-Aib-Ala-Phe-Abu-PyrS2-3Thi-BztA-[Pip]GlnR-Ala-NH2] | 7
